# Test results published in US20140121216A1, “INDOLEAMINE DERIVATIVES FOR THE TREATMENT OF CENTRAL NERVOUS SYSTEM DISEASES” (Adamed Sp. z o.o., priority 2011, published 2014).
# Key:
# [1] = test system: C57BL/6J mice; experiment: Tail suspension test in C57BL/6J mice; format: in vivo
# Method: Within 24 h prior to testing, animals were habituated to experimental conditions. For this purpose mice in home cages were transferred to the experimental room for 15 min., while maintaining the lighting and the “white noise” characteristic for the experiment.
# The testing procedure was performed on male C57BL/6J mice and based on a method of Steru et al. (The tail suspension test: a new method for screening antidepressants in mice, Psychopharmacology 85, 367-370, 1985). An automated device (Kinder Scientific) was used. After 1 h of adaptation in the experimental room with low light, the mice received the test compound intraperitoneally (at least 3 selected doses).
# After a specified time after administration of the test compound mice were suspended by the tail with tape to an aluminum hook connected to a strain gauge. Mice were positioned such that the base of their tail was aligned with the bottom of the hook. […] A strain gauge connected to computer software detected any movements by the mouse in order to record the number of times (events) each subject enters into an escape behavior (struggling episodes), the duration of the event, and the average strength of each event during a 6-min test session. The following settings were used in all experiments: threshold 0.20 Newtons, off delay 30 msec.
# [2] = test system: male Wistar rats; experiment: Conflict test (Vogel test) in rats; format: in vivo
# Method: (§1) Drug-naive male Wistar rats (Charles River, Sulzfeld, Germany) weighing 250-400 g were housed in polycarbonate Makrolon cages (380×200×590 mm) in an environmentally controlled, experimental room (ambient temperature 21-23° C.; relative humidity 50-60%; 12:12 light:dark cycle, lights on at 7:00 a.m.), in groups of 4. Tap water and standard lab chow (Labofeed H, WPIK, Kcynia, Poland) was available ad libitum.
# (§2) The animals were delivered to the Animal Research Unit of the Department of Pharmacology, Institute of Psychiatry and Neurology, 2 weeks before the start of experimental procedures. During these 2 weeks all the rats were repeatedly getting used to the presence of the experimenter (handling), and to injections of saline.
# On the day before experiments rats were weighted exact to 1 g. Animals were assigned randomly to treatment groups. All the experiments were performed on separate groups of animals, between 9:00 and 15:00. Tested compound was administered intraperitoneally (i.p.) in an injection volume of 2 ml/kg in at least 3 selected doses. Control groups received an appropriate vehiculum. […]
# The test was performed by modified method described by Vogel et al. (Psychopharmacologia, 21 (1), 8-12, 1971) using the monitoring system TSE Systems. […] The number of licks and the number of shocks received throughout a 5-min experimental session were recorded automatically.
# [3] = molecular target: T1, 5-HT7 receptor, human recombinant (Homo sapiens, UniProt P34969); experiment: Binding assay, 5-HT7 receptor ([3H]LSD); conditions: read-out: Inhibition constant Ki 5-HT7
# T1 construct: purchased PerkinElmer
# Method: Moreover, ability of the compounds of the invention to block potassium channel hERG was tested.
# The specific ligand binding to the receptors is defined as the difference between the total binding and the non-specific binding determined in the presence of an excess of unlabelled ligand.
# The inhibition constants (Ki) were calculated using the Cheng Prusoff equation (Ki=IC50/(1+(L/KD)), where L=concentration of radioligand in the assay, and KD=affinity of the radioligand for the receptor). A Scatchard plot is used to determine the Kd. The IC50 values (concentration causing a half-maximal inhibition of control specific binding) and Hill coefficients (nH) were determined by non-linear regression analysis of the competition curves generated with mean replicate values using Hill equation curve fitting (Y=D+[(A−D)/(1+(C/C50)^nH)], where Y=specific binding, D=minimum specific binding, A=maximum specific binding, C=compound concentration, C50=IC50, and nH=slope factor).
# [4] = test system: male Wistar rats; experiment: Reversal of the dizocilpine (MK-801)-induced PPI deficits in rats; format: in vivo
# Method: as §1, §2
# On the day before experiments rats were weighted exact to 1 g. Animals were assigned randomly to treatment groups. All the experiments were performed on separate groups of animals, between 9:00 and 15:00. […]
# The PPI apparatus consisted of eight acoustic startle chambers (SR-LAB, San Diego Instruments, San Diego, Calif., USA). […] Startle responses, reflecting the motion of animals in the cylinder following the acoustic stimulus, were detected by a piezoelectric transducer mounted below the frame. […]
# The average inter-trial interval was 22.5 s (range: 15-30 s). […] Startle responses were measured for 100 ms after the onset of the last trial stimulus. […]
# T1 sequence (P34969 whole entry): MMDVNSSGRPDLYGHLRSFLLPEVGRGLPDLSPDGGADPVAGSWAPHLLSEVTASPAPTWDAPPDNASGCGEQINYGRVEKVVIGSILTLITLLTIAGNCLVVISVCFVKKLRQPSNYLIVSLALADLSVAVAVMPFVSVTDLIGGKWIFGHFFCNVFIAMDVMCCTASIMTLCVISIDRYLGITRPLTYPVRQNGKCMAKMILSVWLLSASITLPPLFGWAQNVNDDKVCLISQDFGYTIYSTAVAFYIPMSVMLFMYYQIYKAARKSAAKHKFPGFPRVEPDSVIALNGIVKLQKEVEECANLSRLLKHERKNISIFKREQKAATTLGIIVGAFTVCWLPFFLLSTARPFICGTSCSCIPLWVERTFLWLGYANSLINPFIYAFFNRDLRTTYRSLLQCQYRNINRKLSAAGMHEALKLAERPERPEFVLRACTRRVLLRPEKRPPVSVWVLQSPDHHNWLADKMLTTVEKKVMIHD
compound,measurement,setting,value
"O=C1CCc2ccc(OCCCCN3CCN(c4cccc5c4ccn5S(=O)(=O)c4ccccc4)CC3)cc2N1 [Compound 24, 7-(4-(4-(1-(Phenylsulphonyl)-1H-indol-4-yl)piperazin-1-yl)butoxy)-3,4-dihydroquinolin-2(1H)-one]","MED (minimum effective dose), tail suspension test","[1]; C57BL/6J mice, i.p.",1.25 mg/kg
same,"activity in words, tail suspension test",[1]; mice,active
same,"activity in words, conflict drinking test (Vogel)",[2],active
same,"MED (minimum effective dose), conflict test (Vogel test)",[2]; i.p.,3 mg/kg
same,Ki,[3],67 nM
same,"activity in words, dizocilpine (MK-801)-induced PPI deficit test",[4],active
same,"MED (minimum effective dose), reversal of dizocilpine (MK-801)-induced PPI deficits","[4]; i.p., 60 min. before the test",10 mg/kg
